From patent publication US9345678B2, “Prostanoid receptor agonist compounds and methods of use for same” (ALLERGAN, INC., priority 2013, dated 2016) come the findings set out here.

Read-outs that look alike come from different tables or passages of the source.

Test [1] deals with cytokine secretion in human monocyte derived dendritic cells. Nature of the test: Cytokine secretion in LPS-stimulated human monocyte derived dendritic cells. Type of test: cell-based. The method, then:
FIGS. 8A-F illustrate the effect of different IP receptor agonists and antagonists on cytokine secretion in human monocyte derived dendritic cells stimulated with LPS. In these experiments, the cells were exposed to cicaprost, cicaprost in conjunction with DMSO, and cicaprost with an IP receptor antagonist (Formula VI). Cytokines measured for were TNF-α, IL-6, MCP-1, MIP-1β, IL-8, and IL-12p70, corresponding to FIGS. 8A through 8F, respectively. The concentration ranges of cicaprost were 0 nM, 0.1 nM, 1 nM, 10 nM, 100 nM, and 1000 nM. The concentration of Formula VI IP receptor antagonist used was 10 uM throughout. The concentration of the various cytokines tested for were measured in ng/ml. The concentration of the DMSO used in conjunction with cicaprost was at 0.1%.

The subject of test [2] is rat endotoxin-induced uveitis (EIU) model. In words: Rat endotoxin-induced uveitis (EIU) model: cell infiltrate and protein leakage in the aqueous humor. Type of test: in vivo. Particulars: for Protein concentration in the aqueous humor: FIG. 11B; for Cell infiltrate in the aqueous humor: FIG. 9C. An excerpt: FIGS. 9A-D show the results of experiments where cicaprost was applied topically to inhibit inflammation in a rat endotoxin-induced uveitis (EIU) model. Here, the rats were challenged with LPS, and the resulting inflammatory reaction was quantified by measuring leukocyte cell infiltration in the aqueous humor and by measuring the amount of protein leakage into the aqueous humor. In the Figures, “LPS” corresponds to the control where no other topical treatment was applied. “Vehicle” corresponds to an eye drop ophthalmic vehicle solution containing no drug, and which otherwise comprises 0.1% polysorbate 80 in an aqueous medium. “Pred-Forte” corresponds to an ophthalmic solution of 1% prednisolone acetate. “Acular” corresponds to an ophthalmic solution of 0.4% ketorolac. The concentrations of cicaprost used in the ophthalmic vehicle solution were 0.001%, 0.01%, and 0.1%.
FIGS. 11A-B show the results of experiments measuring cell infiltrate and protein in the aqueous humor in a rat EIU model challenged with LPS, where the rats were challenged in a similar manner as described previously. Cicaprost, as well as the cicaprost prodrugs described above in Formulas II-V, were separately topically dosed as a 0.1% ophthalmic solution.

For test [3] the test system is unchanged. Nature of the test: Rat EIU model: cytokine concentration in the aqueous humor. To be noted: LPS challenge, topical cicaprost 0.001%, 0.01%, 0.1%, vs vehicle. Type of test: in vivo. The procedure: FIGS. 10A-C depict the results of experiments measuring cytokine expression in a rat EIU model, where the rats were challenged with LPS. Cytokine concentration (here, MCP-1, RANTES, and IL-6) was measured subsequent to the LPS challenge, after topical application of cicaprost at concentrations from 0.001%, 0.01%, and 0.1%, together with a control eye drop vehicle (abbreviated “Vehicle” in the figures) where no cicaprost was present.

Test [4] relates to MIP-1β secretion in human macrophages. Nature of the test: Effect on MIP-1β secretion in stimulated human macrophages in vitro. Type of test: cell-based. Particulars: Macrophage. The method, then:
(§1) FIGS. 1A-B illustrate the effect of cicaprost on IL-8 secretion on in vitro human macrophages. The human macrophages were simulated either with lipopolysaccharide (LPS), illustrated in FIG. 1A, or with TNF-α, illustrated in FIG. 1B. The labels on the x-axis correspond respectively to tests measuring IL-8 concentration with no stimulus, a control of only stimulant vehicle (i.e., LPS or TNF-α), and stimulant vehicle in conjunction with cicaprost concentrations of 0.1 nM, 1 nM, 10 nM, 100 nM, and 1000 nM. The y-axis tracks the percentage change of concentration of IL-8 versus the control stimulant vehicle, which is set at 100%.
FIGS. 4A-B illustrate the effect of cicaprost on MIP-1β secretion on in vitro human macrophages. The human macrophages were simulated either with LPS, illustrated in FIG. 4A, or with TNF-α, illustrated in FIG. 4B. The labeling of the graphs is otherwise the same as described above.

The subject of test [5] is TNF-α secretion in human macrophages. In words: Effect on TNF-α secretion in LPS-stimulated human macrophages in vitro. Type of test: cell-based. Particulars: Macrophage, LPS stimulation, FIG. 6. The method, then:
as §1
FIG. 6 illustrates the effect of cicaprost on TNF-α secretion on in vitro human macrophages. The human macrophages were simulated with LPS. The labeling of the graphs is otherwise the same as described above.

In test [6] the test system is IL-8 secretion in human macrophages. Nature of the test: Effect on IL-8 secretion in stimulated human macrophages in vitro. To be noted: Macrophage, LPS stimulation, FIG. 1A. Type of test: cell-based. The procedure: The human macrophages were simulated either with lipopolysaccharide (LPS), illustrated in FIG. 1A, or with TNF-α, illustrated in FIG. 1B. The labels on the x-axis correspond respectively to tests measuring IL-8 concentration with no stimulus, a control of only stimulant vehicle (i.e., LPS or TNF-α), and stimulant vehicle in conjunction with cicaprost concentrations of 0.1 nM, 1 nM, 10 nM, 100 nM, and 1000 nM. The y-axis tracks the percentage change of concentration of IL-8 versus the control stimulant vehicle, which is set at 100%.

Test [7] deals with corneal wound (anterior keratectomy), donated human eyes. Nature of the test: Corneal wound closure in an anterior segment model of donated human eyes. To be noted: 0.1% cicaprost, two drops at 0 and 9 hours, wound area at 18 hours, vs vehicle-dosed eye, 3 pairs of donor eyes. The method, then:
The effect of cicaprost on corneal wound healing was evaluated in an anterior segment model using 3 pairs of donated human eyes. Wounding (anterior keratectomy, AK) was induced by scoring the cornea in 8 mm diameter, and the epithelium was removed using a gill knife. The anterior segment of the eye was dissected and cultured in complete medium on a rotating platform for several days to maintain tissue differentiation. Two drops (approximately 50 μl per drop) of 0.1% cicaprost were dosed at 0 and 9 hours on one eye (“Cp”), while the other eye (“CN”) was treated with vehicle (0.1% polysorbate 80 in saline). The initial wound and the progression of wound closure was visualized with 0.015% fluorescein, and the wound area recorded at 0 and 18 hours, as shown in FIG. 12.

The test system of test [8] is MCP-1 secretion in human macrophages. In words: Effect on MCP-1 secretion in stimulated human macrophages in vitro. To be noted: Macrophage. Type of test: cell-based. The procedure:
as §1
FIGS. 2A-B illustrate the effect of cicaprost on MCP-1 secretion on in vitro human macrophages. The human macrophages were simulated either with LPS, illustrated in FIG. 2A, or with TNF-α, illustrated in FIG. 2B. The labeling of the graphs is otherwise the same as described above.

In test [9] the test system is MIP-1α secretion in human macrophages. In words: Effect on MIP-1α secretion in stimulated human macrophages in vitro. Type of test: cell-based. To be noted: Macrophage. The procedure:
as §1
FIGS. 3A-B illustrate the effect of cicaprost on MIP-1α secretion on in vitro human macrophages. The human macrophages were simulated either with LPS, illustrated in FIG. 3A, or with TNF-α, illustrated in FIG. 3B. The labeling of the graphs is otherwise the same as described above.

The test system of test [10] is VEGF secretion in human macrophages. In words: Effect on VEGF secretion in TNF-α-stimulated human macrophages in vitro. Particulars: Macrophage, TNF-α stimulation, FIG. 7. Type of test: cell-based. The procedure: as §1
FIG. 7 illustrates the effect of cicaprost on VEGF secretion on in vitro human macrophages. The human macrophages were simulated with TNF-α. The labeling of the graphs is otherwise the same as described above.

Test [11] deals with RANTES secretion in human macrophages. Nature of the test: Effect on RANTES secretion in stimulated human macrophages in vitro. To be noted: Macrophage. Type of test: cell-based. The method, then: as §1
FIGS. 5A-B illustrate the effect of cicaprost on RANTES secretion on in vitro human macrophages. The human macrophages were simulated either with LPS, illustrated in FIG. 5A, or with TNF-α, illustrated in FIG. 5B. The labeling of the graphs is otherwise the same as described above.

Where [12] appears, read: LPS challenge, topical 0.1% ophthalmic solution, vs control vehicle.

Regarding `C=C/C(=C\C=C\Cc1ccc(NC2=NCCN2)cc1)OCC` [Formula VI, reference compound], the “Cytokine expression on addition of the IP receptor antagonist to cicaprost” value in test [1] (Formula VI 10 uM with cicaprost 0-1000 nM) is “caused cytokine expression to remain elevated in comparison”.

As to `CCC#CC[C@H](C)[C@H](O)C#C[C@@H]1[C@H]2C/C(=C/COCC(=O)O)C[C@H]2C[C@H]1OC(C)=O` [Formula II], in [2] (setting [12]), the “Protein concentration in the aqueous humor” value (“Protein concentration” below) is “some reduction in protein concentration”.

For the compound `CCC#CC[C@H](C)[C@@H](C#C[C@@H]1[C@H]2C/C(=C/COCC(=O)O)C[C@H]2C[C@H]1O)OC(=O)CC` [Formula V], the “Protein concentration” value in test [2] (setting [12]) is listed as “some reduction in protein concentration”.

The term IC50 denotes the concentration needed to halve the response being measured. Broadly, the EC50 is the concentration needed to bring the measured effect to its halfway point. High values mean a need for much substance, low ones an effect from little substance. In the case of `CCC#CC[C@H](C)[C@H](O)C#C[C@@H]1[C@H]2C/C(=C/COCC(=O)O)C[C@H]2C[C@H]1O` [cicaprost], in test [2] (LPS challenge, topical 0.1% ophthalmic solution, vs control vehicle, FIG. 11A), the “Cell infiltration in the aqueous humor” value is on record as “caused a reduction in cell infiltration”. Also, the “Protein concentration” value in test [2] (setting [12]) was “reduced protein concentration in the aqueous humor”. The “Cell infiltrate in the aqueous humor” value in [2] (topical 0.1% cicaprost solution) is on record as “reduced cell infiltrate to near-zero levels”; in test [2] (topical cicaprost 0.001%, 0.01%, 0.1%), “increasing effect on lowering cell infiltrate”. The “Protein in the aqueous humor” value in [2] (topical cicaprost 0.001-0.1%, especially 0.1%, FIG. 9D) was “also reduced”. The “Cytokine expression (TNF-α, IL-6, MCP-1, MIP-1β, IL-8, IL-12p70)” value was “increasing inhibition of cytokine expression” in [1] (cicaprost 0.1-1000 nM with 0.1% DMSO) and “increasing inhibition of cytokine expression” in test [1] (cicaprost 0.1-1000 nM, vs 0 nM control). Also, the IL-6 concentration result in test [3] is “reduced the concentration of the monitored cytokines”. Moreover, the MCP-1 concentration result in test [3] was “reduced the concentration of the monitored cytokines”. Moreover, in test [3], the RANTES concentration result is reported as “reduced the concentration of the monitored cytokines”. In addition, the IC50 in test [4] (LPS stimulation, FIG. 4A, read-out: IC50 on MIP-1β secretion stimulated by LPS) amounted to 0.5 nM; in test [4] (TNF-α stimulation, FIG. 4B, read-out: IC50 on MIP-1β secretion), 0.7 nM; in test [5], 0.14 nM; in [6], 0.8 nM; in test [8] (LPS stimulation, FIG. 2A, read-out: IC50 on MCP-1 secretion stimulated by LPS) it was 0.7 nM; in test [8] (TNF-α stimulation, FIG. 2B, read-out: IC50 on MCP-1 secretion) it was 0.5 nM. The IC50 stood at 0.3 nM in test [9] (LPS stimulation, FIG. 3A, read-out: IC50 on MIP-1α secretion stimulated by LPS); 0.6 nM in [9] (TNF-α stimulation, FIG. 3B, read-out: IC50 on MIP-1α secretion); 0.8 nM in [11] (LPS stimulation, FIG. 5A, read-out: IC50 on RANTES secretion stimulated by LPS); 1.6 nM in test [11] (TNF-α stimulation, FIG. 5B, read-out: IC50 on RANTES secretion). The “Percentage of wound closure” value in test [7] was “showed an improvement in the percentage of wound closure”. For the same compound, in test [10], a half-maximal response (EC50) required 2.3 nM.

On to `CCC#CC[C@H](C)[C@@H](C#C[C@@H]1[C@H]2C/C(=C/COCC(=O)O)C[C@H]2C[C@H]1O)OC(C)=O` [Formula IV], for which the “Protein concentration” value in test [2] (setting [12]) is reported as “some reduction in protein concentration”.

Regarding `CCC#CC[C@H](C)[C@H](O)C#C[C@@H]1[C@H]2C/C(=C/COCC(=O)O)C[C@H]2C[C@H]1OC(=O)CC` [Formula III], in test [2] (setting [12]), the “Protein concentration” value was “approximately comparable to cicaprost in effect”.
